System: rats with bilateral contusions of the medial prefrontal cortex
Experiment: Lesion size, ventricle and striatal area measurements after medial prefrontal cortex contusion, Example 6
Type: in vivo, rat
Conditions: 4 mg/kg in peanut oil
Experimental: Male Sprague-Dawley rats (300 g) were housed individually in wire cages and kept on a reverse light-dark cycle (0800-2000 h). Animals were assigned to one of four groups: (1) lesion (n=7); (2) lesion +3 days progesterone (LP3; n=7); (3) lesion +5 days progesterone (LP5; n=7); and (4) Sham (n=8). All procedures involving animals conformed to guidelines set forth in the Guide for the Care and Use of Laboratory Animals (U.S. Department of Health and Human Services, Pub no. 85-23, 1985) and were approved by the Emory University Institutional Animal Care and Use Committee.
Bilateral contusions of the medial prefrontal cortex were created by a pneumatic impactor device as previously described. Briefly, rats were given anesthetized with ketamine/xylazine (90 mg/kg; 10 mg/kg) and placed in a stereotaxic apparatus. A craniectomy (diameter 6 mm) was made over the midline of the prefrontal cortex with its center 1.5 mm AP to bregma. After removal of the bone, the tip of the impactor (diameter 5 mm) was moved to +3.0 mm AP; 1.0 mm ML (from bregma), and checked for adequate clearance. Trauma was produced by pneumatically activating the piston to impact −2.0 mm DV (from dura) at a velocity of 3 m/s with a brain contact time of 0.5 seconds.
Progesterone was dissolved in peanut oil (Sigma; 4 mg/kg) and injections were given at 1 and 6 hours post-injury and then once per day for either 3 or 5 consecutive days. Control animals received injections of vehicle at similar time-points. Animals were coded with regard to surgery and treatment to prevent experimenter bias during behavioral testing and histological examination. […]
Mean area measurements of lesion size were quantified from sections at 15 rostral-caudal levels spaced 300 μm apart. […] Perimeters of the striatum and the lateral ventricles were also traced and mean areas were quantified from 7 rostral-caudal levels (300 μm apart).
Experienced individuals who were blind to treatment conditions of the study conducted all histological and behavioral analyses. All data were tested for normality and homoschedasticity before being analyzed by parametric analysis of variance (ANOVA). MWM results were analyzed using separate mixed-factorial (4 groups×5 days) analysis of variance (ANOVA) on each of the two 5-day testing periods (acquisition and retention respectively). Results of the BSN task were analyzed using the mixed-factorial ANOVA (4 groups×2 post-injury trials). […] Pearson r coefficients were calculated to determine whether significant correlations could be detected between histological (e.g., lesion size and cellular density) and behavioral parameters (e.g., acquisition and retention of the MWM task and measures of sensory neglect).

CC(=O)[C@H]1CC[C@H]2[C@@H]3CCC4=CC(=O)CC[C@]4(C)[C@H]3CC[C@]12C [progesterone]
enlargement of the lateral ventricles (3 or 5 days): did not have any effect on this measure | mean striatal area (3 or 5 days): No between-group differences | necrotic cavity formation (3 days (LP3)): tended to be smaller than in the brains of injured animals | necrotic cavity formation (5 days (LP5), P<0.05): significant reductions in overall necrotic cavity formation

Reference: patent publication US20050187188A1, “Methods for the treatment of a traumatic central nervous system injury” (Emory University, priority 2000, published 2005)
